{"source": "patent US20110166226A1", "about": "“PROCESS FOR OBTAINING AN EXTRACT RICH IN ROSMARINIC ACID (RA) FROM THE PLANT ORIGANUM VULGARE AND ITS USE FOR THE TREATMENT OF DIABETES” (ACEF S/A, priority 2008, published 2011)", "assay_type_in_all_cases": "in vivo, rat", "key": {"[1]": {"system": "diabetic rats induced by alloxan", "assay": "Hypoglycemiant activity in diabetic rats induced by alloxan, 15 days oral treatment then follow-up without treatment", "conditions": "for plasmatic levels of glycemia: mean ± EPM", "experimental": "The induction of diabetes in animals was done by using alloxan. The animals stayed in fasting for 24 hours before receiving injections of alloxan, so that the animals became more susceptive to diabetes. After a pilot study, the dose of alloxan that was used was 40 mg/kg injected via intravenous in caudal vein. Alloxan was diluted in sodium citrate 0.05M pH 4.5 and the injected volume was 500. During the four hours after the injection, the animals received glucose solution 5% via oral (ad libidum) in order to prevent from seizures and death, what is common in hypoglycemia. On the first two days after diabetes induction, the animals received an insulin injection (100 μl—diluted 1/10) at every 24 hs via subcutaneous (FIG. 3). This procedure guarantees animals to survive during the disease acute phase enabling the study. […] To use in the animals, it was employed corresponding doses, considering animals body mass, which is about 250 mg/kg of hydroalcoholic extract, 55 mL of infusion/rat and 25 mg/kg of RA. The animals received treatment via oral (v.o.), being maintained during a period of 40 days. The first 15 days evaluated by receiving treatment and the subsequent days with no treatment, so that it was possible to evaluate the potential to maintain the glycemic level. The obtained results are represented in the charts from FIGS. 4 to 7. As it can be observed in FIG. 4, the glycemic levels were monitored during 15 alternate days. After 15 days, the treatment was suspended (ST) and it was evaluated during 5, 10, 15 and 40 days. The data represent the mean±EPM, P<0.0001, when compared to the answer obtained for the groups DTE versus CD and CD versus CN (Anova followed by the Turkey-Kramer test). In FIG. 5, glycemic levels were monitored during 15 alternate days. After 15 days, the treatment was suspended (ST) and it was evaluated during 5, 10, 15 and 40 days. The data represent the mean±EPM, P<0.0001, when compared to the answer obtained for the groups DTAR versus CD and CD versus CN (Anova followed by the Turkey-Kramer test). In FIG. 6, glycemic levels were monitored during 15 alternate days. After 15 days, the treatment was suspended (ST) and it was evaluated during 5, 10, 15 and 40 days. The data represent the mean±EPM, P<0.0001, when compared to the answer obtained for the groups DTC versus CD and CD versus CN (Anova followed by the Turkey-Kramer test). In FIG. 7, glycemic levels were monitored during 15 alternate days. After 15 days, the treatment was suspended (ST) and it was evaluated during 5, 10, 15 and 40 days. The data represent the mean±EPM, P<0.0001, when compared to the answer obtained for the groups treated versus CD. (Anova followed by the Turkey-Kramer test)."}, "[2]": {"system": "diabetic rats induced by alloxan", "assay": "Glycemia monitored for 4 h (60, 120 and 240 minutes) in diabetic rats, chlorpropamide as positive control (FIG. 8)", "conditions": "25 mg/kg v.o., chlorpropamide 40 mg/kg as positive control (FIG. 8)", "experimental": "FIG. 8—Graphic of the variation in plasmatic levels of glycemia (mg/dL), observed in the different experimental groups: Diabetic treated with hydroalcoholic extract (DTE, 250 mg/kg, v.o.), Diabetic treated with Rosmarinic Acid (DTRA, 25 mg/kg, v.o.), Diabetic treated with drugs in the market (Clorpropamida, 40 mg/kg), Diabetic Control (DC) and Normoglycemic Control (NC).\nThe induction of diabetes in animals was done by using alloxan. The animals stayed in fasting for 24 hours before receiving injections of alloxan, so that the animals became more susceptive to diabetes. After a pilot study, the dose of alloxan that was used was 40 mg/kg injected via intravenous in caudal vein. Alloxan was diluted in sodium citrate 0.05M pH 4.5 and the injected volume was 500. During the four hours after the injection, the animals received glucose solution 5% via oral (ad libidum) in order to prevent from seizures and death, what is common in hypoglycemia. On the first two days after diabetes induction, the animals received an insulin injection (100 μl—diluted 1/10) at every 24 hs via subcutaneous (FIG. 3). This procedure guarantees animals to survive during the disease acute phase enabling the study.\nIn FIG. 8, glycemic levels were monitored after 60, 120 and 240 minutes. […]"}, "normal rats": {"system": "normal rats", "assay": "Glycemic level in normal rats"}}}
{"smiles": "O=C(/C=C/c1ccc(O)c(O)c1)O[C@H](Cc1ccc(O)c(O)c1)C(=O)O", "note": "[RA, rosmarinic acid]", "values": [{"measurement": "maintenance of the reduced glycemic level (result in words)", "setting": "[1]; 25 mg/kg v.o., 15 days treatment, followed to 40 days without treatment (FIG. 5)", "value": "in addition of reducing, it kept the glycemic level to the end of the experience"}, {"measurement": "plasmatic levels of glycemia", "setting": "[1]; 5 ST: 5 days with no treatment after the 15 days of treatment", "value": "112.5 ± 5.00", "unit": "mg/dL"}, {"measurement": "plasmatic levels of glycemia", "setting": "[1]; 10 ST: 10 days with no treatment after the 15 days of treatment", "value": "101.5 ± 19.13", "unit": "mg/dL"}, {"measurement": "plasmatic levels of glycemia", "setting": "[1]; 15 ST: 15 days with no treatment after the 15 days of treatment", "value": "103.5 ± 10.78", "unit": "mg/dL"}, {"measurement": "plasmatic levels of glycemia", "setting": "[1]; 40 ST: 40 days with no treatment after the 15 days of treatment", "value": "109.3 ± 9.87", "unit": "mg/dL"}, {"measurement": "effect on level of plasmatic glycemic in diabetic rats (result in words)", "setting": "[1]; diabetic rats", "value": "reducing the level of plasmatic glycemic in diabetic rats"}, {"measurement": "plasmatic levels of glycemia", "setting": "[1]; evaluated day 0, v.o.: infusion 55 mL/rat, extract 250 mg/kg, RA 25 mg/kg", "value": "362.6 ± 101.52", "unit": "mg/dL"}, {"measurement": "plasmatic levels of glycemia", "setting": "[1]; evaluated day 1 of treatment, v.o.: infusion 55 mL/rat, extract 250 mg/kg, RA 25 mg/kg", "value": "136.6 ± 44.96", "unit": "mg/dL"}, {"measurement": "plasmatic levels of glycemia", "setting": "[1]; evaluated day 3 of treatment, v.o.: infusion 55 mL/rat, extract 250 mg/kg, RA 25 mg/kg", "value": "114.0 ± 8.46", "unit": "mg/dL"}, {"measurement": "plasmatic levels of glycemia", "setting": "[1]; evaluated day 5 of treatment, v.o.: infusion 55 mL/rat, extract 250 mg/kg, RA 25 mg/kg", "value": "71.5 ± 22.66", "unit": "mg/dL"}, {"measurement": "plasmatic levels of glycemia", "setting": "[1]; evaluated day 7 of treatment, v.o.: infusion 55 mL/rat, extract 250 mg/kg, RA 25 mg/kg", "value": "124.5 ± 27.75", "unit": "mg/dL"}, {"measurement": "plasmatic levels of glycemia", "setting": "[1]; evaluated day 9 of treatment, v.o.: infusion 55 mL/rat, extract 250 mg/kg, RA 25 mg/kg", "value": "100.1 ± 12.31", "unit": "mg/dL"}, {"measurement": "plasmatic levels of glycemia", "setting": "[1]; evaluated day 11 of treatment, v.o.: infusion 55 mL/rat, extract 250 mg/kg, RA 25 mg/kg", "value": "108.0 ± 13.31", "unit": "mg/dL"}, {"measurement": "plasmatic levels of glycemia", "setting": "[1]; evaluated day 13 of treatment, v.o.: infusion 55 mL/rat, extract 250 mg/kg, RA 25 mg/kg", "value": "92.1 ± 16.89", "unit": "mg/dL"}, {"measurement": "plasmatic levels of glycemia", "setting": "[1]; evaluated day 15 of treatment, v.o.: infusion 55 mL/rat, extract 250 mg/kg, RA 25 mg/kg", "value": "102.0 ± 12.60", "unit": "mg/dL"}, {"measurement": "effectiveness on glycemia monitored for 4 h (result in words)", "setting": "[2]", "value": "it was verified the effectiveness"}, {"measurement": "effect on glycemic level in normal rats (result in words)", "setting": "normal rats", "value": "not reducing the glycemic level in normal rats"}]}
